Assay results taken from PubChem BioAssay AID977605 (Broad Institute, 2014).
Activity calls are given as the source filed them.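 The calls were made as follows: active = fitted curve reaches 40% activation below the top valid tested dose, in every test run; inconclusive = test runs disagree on the call; inactive = the rest, including effects opposite to the expected direction.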

Experiment: endothelial E-selectin upregulation by compounds – imaging, HUVEC, cherry-picked samples, dose response (AID 977605);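 also: signal is the share of imaged cells scored positive for E-selectin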
Conditions: HUVEC E-selectin immunostaining
[1] = at 19.5 µM (top of the series), percent of TNF-alpha response over vehicle
[2] = at 21 µM (top of the series), percent of TNF-alpha response over vehicle

For Cc1noc(C)c1COc1ccccc1C(=O)N1CCN(S(=O)(=O)c2ccc(F)c(F)c2)CC1, the activation [1] was 0.069% (inactive).

With COc1ccc(S(=O)(=O)N(C)C[C@@H]2Oc3ccc(NS(=O)(=O)c4c(C)noc4C)cc3C(=O)N([C@@H](C)CO)C[C@H]2C)cc1 the activation [1] was -0.096% (inactive).

With C[C@H]1CN([C@@H](C)CO)C(=O)c2cc(NC(=O)CCN3CCOCC3)ccc2O[C@@H]1CN(C)S(=O)(=O)c1ccc(Cl)cc1 the activation [1] was -0.142% (inactive).

For C[C@@H]1CN([C@H](C)CO)C(=O)Cc2cc(NC(=O)Nc3ccc(F)cc3)ccc2O[C@@H]1CN(C)Cc1ccncc1, the activation [2] was -0.095% (inactive).

For COc1ccc(S(=O)(=O)Nc2ccc3c(c2)C(=O)N([C@@H](C)CO)C[C@@H](C)[C@@H](CN(C)Cc2ccc(C(=O)Nc4ccccc4N)cc2)O3)cc1, the activation [1] was 1.66% (inactive).

In the case of CC(C)NC(=O)N(C)C[C@@H]1Oc2c(NC(=O)c3ccc(-c4nccs4)cc3)cccc2C(=O)N([C@H](C)CO)C[C@H]1C, the activation [1] is reported as -0.093% (inactive).

With C[C@@H]1CN([C@H](C)CO)C(=O)c2cc(NS(C)(=O)=O)ccc2O[C@@H]1CN(C)C(=O)Nc1ccccc1 the activation [1] was -0.094% (inactive).

For C[C@H](CO)N1C[C@H](C)[C@H](CN(C)C(=O)Nc2cccc3ccccc23)Oc2ccc(NS(C)(=O)=O)cc2C1=O, the activation [1] was 0.267% (inactive).

In the case of C=COCCn1c(C)c(C(C)=O)c2cc(O)ccc21, the activation (at 19.5 µM (top of the series)) is reported as 0.265% (inactive).

For COc1ccc(NC(=O)c2cc(-c3cccs3)on2)c(OC)c1, the activation [1] was 1.59% (inactive).

In the case of C[C@H](CO)N1C[C@H](C)[C@@H](CN(C)S(=O)(=O)c2cn(C)cn2)Oc2ccc(NC(=O)Nc3ccc(F)cc3)cc2CC1=O, the activation [1] is reported as 0.1% (inactive).

For COc1ccc(OC)c(NC(=O)c2ccc(CSc3ncccn3)cc2)c1, the activation [1] was 0.128% (inactive).

For C[C@H](CO)N1C[C@H](C)[C@H](CN(C)S(=O)(=O)c2ccc(Cl)cc2)Oc2ccc(NC(=O)Cc3ccccc3)cc2C1=O, the activation [1] was -0.076% (inactive).

With COc1ccc(S(=O)(=O)Nc2ccc3c(c2)C(=O)N([C@@H](C)CO)C[C@H](C)[C@@H](CN(C)C(=O)Nc2cccc4ccccc24)O3)cc1 the activation [1] was -0.208% (inactive).

For C[C@H](CO)N1C[C@H](C)[C@H](CN(C)C)Oc2ccc(NC(=O)Cc3cn(C)c4ccccc34)cc2C1=O, the activation [1] was 8.16% (inactive).

In the case of C[C@H](CO)N1C[C@H](C)[C@H](CN(C)S(C)(=O)=O)Oc2c(NS(C)(=O)=O)cccc2C1=O, the activation [2] is reported as -0.054% (inactive).

In the case of COc1ccc(S(=O)(=O)N(C)C[C@H]2Oc3ccc(NC(=O)Nc4ccc5c(c4)OCO5)cc3CC(=O)N([C@H](C)CO)C[C@H]2C)cc1, the activation [2] is reported as 0.257% (inactive).

In the case of CC(C)NC(=O)N(C)C[C@H]1Oc2c(NC(=O)c3ccc(-c4nccs4)cc3)cccc2C(=O)N([C@@H](C)CO)C[C@H]1C, the activation [1] is reported as 2.24% (inactive).

In the case of CCCCSCCCNC(=O)C1CCC(CNS(=O)(=O)c2ccc(NC(C)=O)cc2)CC1 (stereo not given), the activation [1] is reported as 0.405% (inactive).

For COc1ccc(NC(=O)Nc2cccc3c2O[C@@H](CN(C)C(=O)NC2CCCCC2)[C@@H](C)CN([C@H](C)CO)C3=O)cc1, the activation [1] was 0.334% (inactive).

For COc1ccc(C)cc1NC(=O)C(NCC(O)c1ccccc1)c1ccccc1 (stereo not given), the activation [1] was -0.094% (inactive).

In the case of CN1C(=O)c2cc(NS(C)(=O)=O)ccc2OC[C@@H]2O[C@H](CC(=O)NCc3ccc(-c4ccccc4)cc3)CC[C@@H]21, the activation [1] is reported as -0.043% (inactive).

For Cc1noc(C)c1S(=O)(=O)Nc1ccc2c(c1)C(=O)N([C@H](C)CO)C[C@@H](C)[C@H](CN(C)Cc1ccncc1)O2, the activation [2] was -0.191% (inactive).

In the case of C[C@@H]1CN([C@H](C)CO)C(=O)c2cc(NS(=O)(=O)c3ccccc3)ccc2O[C@H]1CN(C)C(=O)NC1CCCCC1, the activation [1] is reported as 0.289% (inactive).

In the case of O=C(c1cc(COc2ccc(F)cc2Cl)on1)N(Cc1ccncc1)CC1CCCO1 (stereo not given), the activation [1] is reported as -0.279% (inactive).

With Cc1ccc(C(=O)NNC(=O)CSc2nnc(CNc3ccc(F)cc3)n2C)cc1 the activation [1] was -0.046% (inactive).

With Cc1noc(C)c1NC(=O)Nc1ccc2c(c1)CC(=O)N([C@@H](C)CO)C[C@H](C)[C@@H](CN(C)S(=O)(=O)c1ccccc1)O2 the activation [1] was -0.1% (inactive).

For O=C(COc1ccc(Cl)cc1)Nc1nnc(S(=O)(=O)N2CCCCCC2)s1, the activation [1] was 1.11% (inactive).

For Cc1ccc(S(=O)(=O)N(C)C[C@@H]2Oc3ccc(N(C)C)cc3C(=O)N([C@H](C)CO)C[C@H]2C)cc1, the activation [1] was 0.022% (inactive).

In the case of C[C@@H]1CN([C@@H](C)CO)C(=O)c2cccc(NC(=O)CCCCCC(=O)Nc3ccccc3N)c2O[C@H]1CN(C)S(=O)(=O)c1cn(C)cn1, the activation [1] is reported as 0.292% (inactive).

With COc1ccc(S(=O)(=O)N(C)C[C@@H]2Oc3c(NS(=O)(=O)c4ccc(F)cc4)cccc3C(=O)N([C@H](C)CO)C[C@@H]2C)cc1 the activation [1] was -0.15% (inactive).

For O=S1(=O)CC(N2CCN(Cc3ccccc3F)CC2)CN1Cc1cn(Cc2ccccc2)nn1 (stereo not given), the activation [1] was 0.129% (inactive).

For C[C@H]1CN([C@@H](C)CO)C(=O)c2cccc(NC(=O)c3ccncc3)c2O[C@@H]1CN(C)Cc1ccc(C(=O)Nc2ccccc2N)cc1, the activation [1] was 0.014% (inactive).

For COc1ccc(-c2nc(NC(=O)Cn3c(=O)oc4ccccc43)sc2C)cc1, the activation [1] was 1.37% (inactive).

In the case of C[C@@H]1CN([C@H](C)CO)C(=O)Cc2cc(NC(=O)Cc3cn(C)c4ccccc34)ccc2O[C@H]1CN(C)Cc1ccc(C(F)(F)F)cc1, the activation [2] is reported as 14% (inactive).

For CCC(=O)c1ccc(OCC(=O)NNC(=O)c2cc(C)oc2C)cc1, the activation [1] was -0.03% (inactive).

For C[C@@H]1CN([C@H](C)CO)C(=O)c2cc(NC(=O)CCCCCC(=O)Nc3ccccc3N)ccc2O[C@@H]1CN(C)C(=O)Nc1ccc2c(c1)OCO2, the activation [1] was -0.103% (inactive).

In the case of CO[C@H]1CN(C)C(=O)c2cc(NC(=O)Nc3ccc(Cl)cc3)ccc2OC[C@H](C)NC[C@H]1C, the activation [1] is reported as 0.158% (inactive).

For COc1cccc(NC(=O)C2C3C=CC4(O3)C2C(=O)N(CCCN2CCCCC2)C4C(=O)NC2CCCCC2)c1 (stereo not given), the activation [1] was 1.56% (inactive).

In the case of CC(C)NC(=O)Nc1cccc2c1O[C@@H](CN(C)Cc1ccc(C(F)(F)F)cc1)[C@@H](C)CN([C@H](C)CO)C2=O, the activation [1] is reported as 0.009% (inactive).

With COc1ccc(NS(=O)(=O)c2ccc3c(c2)CCCN3C(C)=O)cc1 the activation [1] was -0.06% (inactive).

With C[C@@H]1CN([C@@H](C)CO)C(=O)Cc2cc(NS(=O)(=O)c3ccc(F)cc3)ccc2O[C@@H]1CN(C)S(=O)(=O)c1ccc(Cl)cc1 the activation [2] was -0.065% (inactive).

For C[C@@H]1CN([C@@H](C)CO)C(=O)c2cc(NC(=O)Nc3ccc(C(F)(F)F)cc3)ccc2O[C@H]1CN(C)S(=O)(=O)c1ccccc1, the activation [1] was -0.17% (inactive).

In the case of C[C@H]1CN([C@@H](C)CO)C(=O)c2cc(NC(=O)CCCN(C)C)ccc2O[C@H]1CN(C)Cc1ccc(C(F)(F)F)cc1, the activation [1] is reported as -0.127% (inactive).

With CCOC(=O)c1ccc(N(C(=O)c2ccco2)C(C(=O)NC2CCCCC2)c2ccncc2)cc1 (stereo not given) the activation [1] was -0.129% (inactive).

For C[C@H](CO)N1C[C@H](C)[C@H](CN(C)Cc2ccncc2)Oc2ccc(NC(=O)CCC(F)(F)F)cc2CC1=O, the activation [1] was -0.107% (inactive).

For COc1ccc(NC(=O)Nc2ccc3c(c2)C(=O)N([C@@H](C)CO)C[C@@H](C)[C@@H](CN(C)S(=O)(=O)c2ccc(F)cc2)O3)cc1, the activation [2] was 0.213% (inactive).

With C[C@@H]1CN([C@H](C)CO)C(=O)c2cccc(NC(=O)CCCCCC(=O)Nc3ccccc3N)c2O[C@H]1CN(C)C the activation [1] was 0.064% (inactive).

With Cc1cccc(CC(=O)c2c[nH]c3ccccc23)c1 the activation [1] was -0.07% (inactive).

For COC(=O)c1sc2nc(SCC(=O)N(C)c3ccccc3)n(N)c(=O)c2c1C, the activation [1] was 1.12% (inactive).

For Cc1cccc(CC(=O)Nc2sc(C(C)C)cc2C(=O)N2CCOCC2)c1, the activation [1] was 0.007% (inactive).

With C[C@H]1CN([C@@H](C)CO)C(=O)c2cccc(NC(=O)c3cnccn3)c2O[C@H]1CN(C)Cc1ccc2c(c1)OCO2 the activation [1] was -0.117% (inactive).

For Cc1ccc(S(=O)(=O)N[C@@H](Cc2ccccc2)C(=O)N2CCC(C(=O)N[C@@H](CCC(N)=O)C(=O)O)CC2)cc1, the activation [1] was 0.009% (inactive).

For COc1ccc(OCC(O)CNC(=O)c2ccccc2)cc1 (stereo not given), the activation [1] was 4.38% (inactive).

With C[C@H]1CN([C@@H](C)CO)C(=O)c2cccc(NC(=O)Nc3ccc(F)cc3)c2O[C@@H]1CN(C)C(=O)NC1CCCCC1 the activation [2] was 0.342% (inactive).

For COc1ccc(NC(=O)NC2(C(=O)N3CCOCC3)CCCCC2)cc1, the activation [1] was 0.439% (inactive).

For CCOc1ccc(C(=O)N2CCN(S(=O)(=O)c3cccs3)CC2)c(OCC)c1, the activation [1] was -0.235% (inactive).

In the case of C[C@@H]1CN([C@@H](C)CO)C(=O)Cc2cc(NC(=O)Cc3ccccc3)ccc2O[C@@H]1CN(C)Cc1ccncc1, the activation [2] is reported as -0.043% (inactive).

In the case of C[C@H](CO)N1C[C@H](C)[C@@H](CN(C)Cc2ccc(Oc3ccccc3)cc2)Oc2ccc(NS(C)(=O)=O)cc2CC1=O, the activation [1] is reported as 0.311% (inactive).

For C[C@H]1CN([C@@H](C)CO)C(=O)Cc2cc(NC(=O)Nc3ccccc3)ccc2O[C@H]1CN(C)C, the activation [1] was 0.067% (inactive).

With COc1ccc(NC(=O)Nc2ccc3c(c2)C(=O)N([C@H](C)CO)C[C@H](C)[C@@H](CN(C)Cc2ccncc2)O3)cc1 the activation [1] was 4.31% (inactive).

In the case of CC(C)NC(=O)N(C)C[C@@H]1Oc2c(NC(=O)c3ccc(-c4nccs4)cc3)cccc2C(=O)N([C@@H](C)CO)C[C@H]1C, the activation [1] is reported as 1.61% (inactive).

For Cc1ccc(COc2ccc(/C=N/O)cc2)cc1, the activation [1] was -0.083% (inactive).

For COc1ccc(S(=O)(=O)Nc2ccc3c(c2)C(=O)N([C@@H](C)CO)C[C@H](C)[C@@H](CN(C)Cc2ccc(Cl)c(Cl)c2)O3)cc1, the activation [1] was -0.097% (inactive).

For CCn1c(SCC(=O)Nc2cccc(C)c2)nc2c(c1=O)SC(C)C2 (stereo not given), the activation [1] was -0.269% (inactive).

For CNS(=O)(=O)c1ccc(NC(=O)C2CC(=O)N(c3ccc(Cl)cc3)C2)cc1 (stereo not given), the activation [1] was -0.269% (inactive).

In the case of C[C@H](CO)N1C[C@H](C)[C@@H](CN(C)S(C)(=O)=O)Oc2ccc(NC(=O)CCCCCC(=O)Nc3ccccc3N)cc2CC1=O, the activation [1] is reported as 0.149% (inactive).

In the case of Cc1ccc(SCc2cc(=O)n(C)[nH]2)cc1, the activation [1] is reported as 0.221% (inactive).

With O=S(=O)(Nc1cccc(S(=O)(=O)N2CCCC2)c1)c1cccs1 the activation [1] was 2.79% (inactive).

For CC(C)(C)c1cc(CCC(=O)NCc2ccccn2)cc(C(C)(C)C)c1O, the activation [1] was -0.086% (inactive).
